{"source": "patent US6514912B1", "about": "“Use of benzo[C]quinolizine derivatives as plant growth regulators” (Applied Research Systems ARS Holding N.V., priority 1998, dated 2003)", "test_system": "Arabidopsis Thaliana Columbia (Col 0) seeds", "assay": "Germination of Arabidopsis seeds in the dark, hypocotyledon length", "format": "in vivo", "settings": "10 days in the dark", "protocol": "Batches of 25 seeds of Arabidopsis Thaliana Columbia (Col 0) were made to germinate in a suitable culture medium consisting of 0.5 ×MS at pH 5.7, containing 1% sucrose, 1×Vitamin B5 Gamborg, and 0.8% phyto-agar in the presence of the 1,2,5,6-tetrahydro-(11H)benzo[c]quinolizin-3-one inhibitor at the concentrations of 0, 0.01, 0.1, 1 and 10 micromolar. After two hours of treatment in light, the seeds were covered with three layers of aluminium foil and kept at 21° C. in a growth chamber. After 10 days in the dark, the length of the hypocotyledons was measured. […] A reduction of 50% in the hypocotyledons as compared to the controls was found for the seeds treated with a concentration of 0.1 micromolar of inhibitor."}
{"smiles": "O=C1C=C2CCc3ccccc3N2CC1", "note": "[1,2,5,6-tetrahydro-(11H)benzo[c]quinolizin-3-one]", "values": [{"measurement": "length of the hypocotyledons versus inhibitor concentration", "setting": "0.01, 0.1, 1 and 10 micromolar, untreated approximately 15-16 mm", "result": "progressively shorter as the concentration of inhibitor used was increased"}, {"measurement": "reduction in the hypocotyledons as compared to the controls", "setting": "0.1 micromolar inhibitor in culture medium, 21° C., batches of 25 seeds", "result": 50, "unit": "%"}]}
